Tests used:
HT1080 cells = assay: Cellular assay, inhibition of 2-HG production in HT1080 cells; type: cell-based; conditions: Homo sapiens, HT-1080, 48 h
Method: Cells (HT1080 or U87MG) are grown in T125 flasks in DMEM containing 10% FBS, 1× penicillin/streptomycin and 500 ug/mL G418 (present in U87MG cells only). They are harvested by trypsin and seeded into 96 well white bottom plates at a density of 5000 cell/well in 100 ul/well in DMEM with 10% FBS. […] Cells are incubated overnight at 37° C. in 5% CO2. The next day test compounds are made up at 2× the final concentration and 100 ul are added to each cell well. The final concentration of DMSO is 0.2% and the DMSO control wells are plated in row G. The plates are then placed in the incubator for 48 hours. […] The cell plate is placed back in the incubator for another 24 hours. At 72 hours post compound addition, 10 mL/plate of Promega Cell Titer Glo reagent is thawed and mixed. The cell plate is removed from the incubator and allowed to equilibrate to room temperature. Then 100 ul of Promega Cell Titer Glo reagent is added to each well of media. The cell plate is then placed on an orbital shaker for 10 minutes and then allowed to sit at room temperature for 20 minutes. The plate is then read for luminescence with an integration time of 500 ms.

U87MG cells = assay: Cellular assay, inhibition of 2-HG production in U87MG cells; type: cell-based
How it was run: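 HT1080 or U87MG cells (U87MG kept with 500 ug/mL G418) seeded at 5000 cells/well and treated with compound at 0.2% final DMSO. Incubated 48 h at 37 °C. 2-HG inhibition determined by LC-MS. Viability read by CellTiter-Glo luminescence at 72 h post-dose.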

IDH1 R132H = IDH1 R132H (Homo sapiens (Human), UniProt O75874, R132H); assay: In vitro NADPH depletion assay for IDH1m R132H inhibitors; type: biochemical; conditions: IDH1 R132H enzyme, read-out: IDH R132H IC50
Method: (§1) A test compound is prepared as 10 mM stock in DMSO and diluted to 50× final concentration in DMSO, for a 50 μl reaction mixture. IDH enzyme activity converting alpha-ketoglutarate to 2-hydroxyglutaric acid is measured using a NADPH depletion assay. In the assay the remaining cofactor is measured at the end of the reaction with the addition of a catalytic excess of diaphorase and resazurin, to generate a fluorescent signal in proportion to the amount of NADPH remaining. […] The reaction is started with the addition of 10 μl of Substrate Mix ([…], 5 mM alpha-ketoglutarate, in Assay Buffer) and the mixture is incubated for 90 minutes at room temperature.

IDH1 R132C = IDH1 R132C (Homo sapiens (Human), UniProt O75874, R132C); assay: In vitro NADPH depletion assay for IDH1m R132C inhibitors; type: biochemical; conditions: IDH1 R132C enzyme, read-out: IDH R132C IC50
Method: as §1
The concentration of NADPH and alpha-ketoglutarate in the Substrate Buffer is 20 μM and 1 mM, respectively.

[1] = inhibition of 2-HG production, U87MG cells, 48 hours

IDH1 R132H, sequence (O75874 whole entry R132H): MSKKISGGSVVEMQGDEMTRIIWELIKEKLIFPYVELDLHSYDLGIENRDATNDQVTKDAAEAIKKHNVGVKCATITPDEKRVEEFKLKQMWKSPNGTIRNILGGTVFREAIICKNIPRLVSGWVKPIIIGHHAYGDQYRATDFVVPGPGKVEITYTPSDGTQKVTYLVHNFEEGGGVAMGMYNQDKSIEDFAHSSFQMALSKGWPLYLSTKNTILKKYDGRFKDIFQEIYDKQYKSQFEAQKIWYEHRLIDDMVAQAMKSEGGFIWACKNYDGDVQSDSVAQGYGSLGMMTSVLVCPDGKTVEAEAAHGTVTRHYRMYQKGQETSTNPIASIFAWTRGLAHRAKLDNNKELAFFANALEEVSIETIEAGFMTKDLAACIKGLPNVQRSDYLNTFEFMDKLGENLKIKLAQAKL
IDH1 R132C, sequence (O75874 whole entry R132C): as the sequence (O75874 whole entry R132H) above, with H132C counted along it

IC50 (HT1080 cells) | IC50 (U87MG cells; Homo sapiens, U-87 MG, 48 h) | IC50 (IDH1 R132H) | IC50 (IDH1 R132C) | IC50 (U87MG cells; [1]) | Compound
< 100 nM | < 100 nM |  |  |  | N#Cc1ccnc(N2C(=O)CC[C@H]2C(=O)N(c2cccc(F)c2)[C@H](C(=O)NC2CC(F)(F)C2)c2c(Cl)cccc2Cl)c1 (single isomer, unassigned) [Compound 63]
 | 100 to 500 nM | < 100 nM | < 100 nM |  | O=C(NC1CC(F)(F)C1)[C@H](c1ccccc1Cl)N(C(=O)[C@@H]1CCC(=O)N1c1ccccn1)c1cccc(F)c1 [Compound 5]
100 to 500 nM | 100 to 500 nM |  |  |  | Cc1cccnc1N1C(=O)CC[C@H]1C(=O)N(c1cccc(F)c1)[C@H](C(=O)NC1CC(F)(F)C1)c1ccccc1Cl [Compound 15]
< 100 nM |  |  |  |  | Cc1cccc(N2C(=O)CC[C@H]2C(=O)N(c2cccc(F)c2)[C@H](C(=O)NC2CC(F)(F)C2)c2ccccc2Cl)n1 [Compound 28]
100 to 500 nM | 100 to 500 nM |  |  |  | O=C(NC1CC(F)(F)C1)[C@H](c1ccccc1Cl)N(C(=O)[C@@H]1CCC(=O)N1c1cc(C(F)(F)F)ccn1)c1cccc(F)c1 [Compound 40]
100 to 500 nM | 100 to 500 nM |  |  |  | O=C(NC1CC(F)(F)C1)[C@H](c1ccccc1Cl)N(C(=O)[C@@H]1CCC(=O)N1c1ccc(Cl)cn1)c1cccc(F)c1 [Compound 48]
100 to 500 nM | 100 to 500 nM |  |  |  | O=C(NC1CC(F)C1)[C@H](c1ccccc1Cl)N(C(=O)[C@@H]1CCC(=O)N1c1ncccn1)c1cccc(F)c1 (stereo partly shown) [Compound 49]
 |  | < 100 nM | < 100 nM | < 100 nM | N#Cc1cccc(N2C(=O)OC[C@H]2C(=O)N(c2cccc3cn[nH]c23)[C@H](C(=O)NC2CCC(F)(F)CC2)c2ccccc2Cl)c1 [Compound 142, (S)—N—((S)-1-(2-Chlorophenyl)-2-(4,4-difluorocyclohexylamino)-2-oxoethyl)-3-(3-cyanophenyl)-N-(1H-indazol-7-yl)-2-oxooxazolidine-4-carboxamide]
 |  | < 100 nM | < 100 nM | < 100 nM | (2S)—N-(1-(2-Chlorophenyl)-2-((3,3-difluorocyclobutyl)amino)-2-oxoethyl)-1-(4-cyanopyridin-2-yl)-N-(3-fluoro-5-(methylsulfonyl)phenyl)-5-oxopyrrolidine-2-carboxamide [Compound 110]

Further lines, the compound ahead of its results:

Compound | IC50 (HT1080 cells) | IC50 (U87MG cells; Homo sapiens, U-87 MG, 48 h) | IC50 (IDH1 R132H) | IC50 (IDH1 R132C) | IC50 (U87MG cells; [1])
N#Cc1ccnc(N2C(=O)OCC[C@H]2C(=O)N(c2cncc(F)c2)C(C(=O)NC2CC(F)(F)C2)c2ccccc2)c1 (stereo in doubt) [Compound 301, (S)-3-(4-cyanopyridin-2-yl)-N—((R)-2-((3,3-difluorocyclobutyl)amino)-2-oxo-1-phenylethyl)-N-(5-fluoropyridin-3-yl)-2-oxo-1,3-oxazinane-4-carboxamide] | < 100 nM |  | < 100 nM |  | 
N#Cc1ccnc(N2C(=O)OCC[C@H]2C(=O)N(c2cncc(F)c2)C(C(=O)NC2CC(F)(F)C2)c2ccccc2F)c1 (stereo in doubt) [Compound 302, (S)-3-(4-cyanopyridin-2-yl)-N—((R)-2-(3,3-difluorocyclobutylamino)-1-(2-fluorophenyl)-2-oxoethyl)-N-(5-fluoropyridin-3-yl)-2-oxo-1,3-oxazinane-4-carboxamide] | < 100 nM |  | < 100 nM |  | 
O=C(NC1CC(F)(F)C1)[C@H](c1ccccc1Cl)N(C(=O)[C@@H]1CCC(=O)N1c1nccc2ccccc12)c1cccc(F)c1 [Compound 16] | 100 to 500 nM | 500 to 1000 nM |  |  | 
COc1cccnc1N1C(=O)CC[C@H]1C(=O)N(c1cccc(F)c1)[C@H](C(=O)NC1CC(F)(F)C1)c1ccccc1Cl [Compound 17] | 500 to 1000 nM | 1000 to 2000 nM |  |  | 
O=C(NC1CC(F)(F)C1)[C@H](c1ccccc1Cl)N(C(=O)[C@@H]1CCC(=O)N1c1ccncn1)c1cccc(F)c1 [Compound 22] |  |  | 100 to 500 nM | 100 to 500 nM | 
O=C(NC1CC(F)(F)C1)[C@H](c1ccccc1Cl)N(C(=O)[C@@H]1COCC(=O)N1c1ncccn1)c1cccc(F)c1 [Compound 45] | 100 to 500 nM | 100 to 500 nM |  |  | 
N#Cc1cccc(N(C(=O)[C@@H]2CCC(=O)N2c2nccc(C#N)n2)[C@H](C(=O)NC2CCC(F)(F)CC2)c2ccccc2Cl)c1 [Compound 178, (S)—N—((S)-1-(2-Chlorophenyl)-2-((4,4-difluorocyclohexyl)amino)-2-oxoethyl)-N-(3-cyanophenyl)-1-(4-cyanopyrimidin-2-yl)-5-oxopyrrolidine-2-carboxamide] | 100 to 500 nM | < 100 nM |  |  | 
N#Cc1ccnc(N2C(=O)CC[C@H]2C(=O)N(c2cc(F)cc(F)c2)[C@H](C(=O)NC2CC(F)(F)C2)c2ccccc2F)c1 [Compound 208, (S)-1-(4-Cyanopyridin-2-yl)-N—((S)-2-(3,3-difluorocyclobutylamino)-1-(2-fluorphenyl)-2-oxoethyl)-N-(3,5-difluorophenyl)-5-oxopyrrolidine-2-carboxamide] |  | < 100 nM | < 100 nM | < 100 nM | 
(2S)—N-(1-(2-Chlorophenyl)-2-((4,4-difluorocyclohexyl)amino)-2-oxoethyl)-1-(4-cyanopyridin-2-yl)-N-(3-fluoro-5-(methylsulfonyl)phenyl)-5-oxopyrrolidine-2-carboxamide [Compound 105] |  |  | < 100 nM | < 100 nM | < 100 nM
(S)-tert-butyl 3-(((S)-1-(2-chlorophenyl)-2-((3,3-difluorocyclobutyl) amino)-2-oxoethyl)(3,5-difluorophenyl)carbamoyl)-5-oxopiperazine-1-carboxylate [Compound 97] |  |  | < 100 nM | < 100 nM | < 100 nM
(S)—N—((S)-1-(2-Chlorophenyl)-2-(3,3-difluorocyclobutylamino)-2-oxoethyl)-1-(3-cyano-phenyl)-N-(1H-indazol-7-yl)-5-oxopyrrolidine-2-carboxamide [Compound 186] |  |  | < 100 nM | < 100 nM | < 100 nM
(S)—N—((S)-1-(2-Chlorophenyl)-2-(3,3-difluorocyclobutylamino)-2-oxoethyl)-N-(3-cyano-5-fluorophenyl)-3-(3-cyanophenyl)-2-oxooxazolidine-4-carboxamide [Compound 134] |  |  | < 100 nM | < 100 nM | < 100 nM
(S)—N—((S)-1-(2-Chlorophenyl)-2-((3,3-difluorocyclobutyl)amino)-2-oxoethyl)-1-(4-cyanopyridin-2-yl)-N-(1H-indazol-6-yl)-5-oxopyrrolidine-2-carboxamide [Compound 205] |  |  | < 100 nM | < 100 nM | < 100 nM
(S)—N—((S)-1-(2-Chlorophenyl)-2-((3,3-difluorocyclobutyl)amino)-2-oxoethyl)-1-(4-cyanopyrimidin-2-yl)-N-(3-fluoro-5-(methylsulfonyl)phenyl)-5-oxopyrrolidine-2-carboxamide [Compound 109] |  |  | < 100 nM | < 100 nM | 100 to 500 nM
(S)—N—((S)-1-(2-Chlorophenyl)-2-((4,4-difluorocyclohexyl)amino)-2-oxoethyl)-3-(4-cyano-pyridin-2-yl)-N-(3-fluorophenyl)-2-oxooxazolidine-4-carboxamide [Compound 78] |  |  | < 100 nM | < 100 nM | < 100 nM
